Counter-ions that a name gives are not always drawn.
How the values were obtained:
[1] = molecular target: T1, GFP-tagged K-rasG12V (oncogenic K-ras) in MDCK cells (Homo sapiens, UniProt P01116, G12V); experiment: K-ras mislocalization, confocal fluorescence microscopy with densitometric analysis; assay type: cell-based, canine; settings: 48 hours, MDCK cells stably expressing GFP-tagged K-rasG12V, normalized to vehicle-treated control; for inhibition at 4 µM: 4 μM compound, read-out: % Mislocalization of K-ras when treated with 4 μM compound
T1 construct: mGFP-tagged full length oncogenic mutant K-Ras (GFP-K-RasG12V); expressed in transfected cells
Method: FIGS. 1 & 2—Representative images showing degree of K-ras mislocalization with compound treatment (images corresponds with column 3 of Table 2). MDCK cells stably expressing GFP-tagged K-rasG12V were treated with vehicle or compound (4 μM) for 48 hours and fixed with 4% paraformaldehyde. The coverslips were mounted in Mowiol and imaged by confocal microscopy (Nikon A1) using a 60× objective. The number above each image corresponds the fendiline derivative code.
(§1) To determine the effect of compounds on localization of K-ras, Mardine Darby canine kidney epithelial (MDCK) cells stably expressing GFP-tagged K-rasG12V (oncogenic K-ras) grown on cover slips were treated with vehicle or compound (4 μM) for 48 hours and fixed with 4% paraformaldehyde. The coverslips were mounted in Mowiol and imaged by confocal microscopy (Nikon A1) using a 60× objective. Images were analyzed by ImageJ software. Densitometric analysis was performed on images to determine the degree of K-ras mislocalization. To determine the effect of compounds on K-ras function, MDCK cells stably expressing GFP-tagged K-rasG12V were treated with vehicle or compound (4 μM) for 48 hours. Following treatment, whole cell lysates were prepared and subjected SDS-PAGE and western blotting to quantify the level of phosphorylated ERK, a protein activated downstream of K-ras. All calculations were normalized to vehicle-treated control.
Fluorescence microscopy: 2×10^5 or 1×10^5 cells/well were seeded in 6- or 12-well cell culture plates, respectively, containing glass coverslips. 24 h after seeding, fresh medium containing 1% vehicle (Dimethyl sulfoxide, DMSO) or 4 μM test compound (1:100 dilution, such that DMSO was 1%) was added and incubated for 48 h, following which the cells were fixed with 4% paraformaldehyde and coverslips were mounted in Mowiol. Cells were imaged in the GFP wavelength (488 nm) using a confocal microscope (Nikon A1) with 60× objective. Images were saved in tagged imaged file format (tiff) and analyzed by ImageJ software. The densitometric ratio of plasma membrane localized K-Ras versus total K-Ras was calculated and normalized to vehicle-treated control.

[2] = tested on: phosphorylated ERK, a protein activated downstream of K-ras; experiment: Western immunoblotting for pERK (inhibition of ERK activation); assay type: cell-based, canine; settings: Canis lupus familiaris; 4 μM compound, 48 hours, MDCK cells stably expressing GFP-tagged K-rasG12V; whole cell lysates; normalized to vehicle-treated control; read-out: % Inhibition of ERK activation when treated with 4 μM compound
Method: as §1
Western Immunoblotting for pERK: 2×10^5 cells/well were seeded in 6-well cell culture plates. 24 h after seeding, fresh medium containing 1% vehicle (DMSO) or 4 μM test compound (1:100 dilution, such that DMSO was 1%) was added and incubated for 48 h. Cells were lysed in Buffer B (50 mM Tris [pH 7.5], 75 mM NaCl, 25 mM NaF, 5 mM MgCl2, 5 mM EGTA, 1 mM dithiothreitol, 100 μM NaVO4, 1% Nonidet P-40 plus protease inhibitors). SDS-PAGE and immunoblotting with the anti-phospho-p44/42 mitogen-activated protein kinase (MAPK) (ERK1/2) antibody was performed using 20 μg of each whole cell lysate. Signal was detected by enhanced chemiluminescence (SuperSignal; Pierce, Thermo Fisher Scientific, Rockford, Ill.) and imaged by FluorChemQ (Alpha Inotech, San Leandro, Calif.). Quantification of intensities was performed using FluorChemQ software. Results were normalized to vehicle-treated control.

| inhibition at 4 µM [1] [%] | % Mislocalization of K-ras when treated with 4 μM compound [1] [%] | SMILES | inhibition at 4 µM [2] [%] |
| --- | --- | --- | --- |
| 13.2 | – | CC(C(=O)NCC(c1ccccc1)c1ccccc1)c1ccccc1 (stereo not shown) [Compound 02] | – |
| 25.8 | – | C[C@@H](NC(=O)CC(c1ccccc1)c1ccccc1)c1ccccc1 [Compound 03, (R)-3,3-diphenyl-N-(1-phenylethyl)propanamide] | – |
| 9.73 | – | C[C@H](NC(=O)CC(c1ccccc1)c1ccccc1)c1ccccc1 [Compound 04, (S)-3,3-diphenyl-N-(1-phenylethyl)propanamide] | – |
| 4.01 | – | O=C(CC(c1ccccc1)c1ccccc1)NCc1ccccc1 [Compound 05, N-benzyl-3,3-diphenylpropanamide] | – |
| 28.9 | – | CC(NC(=O)CCc1ccccc1)c1ccccc1 (stereo not shown) [Compound 06, 3-phenyl-N-(1-phenylethyl)propanamide] | – |
| 21.9 | – | CC(CNCC(c1ccccc1)c1ccccc1)c1ccccc1 (stereo not shown) [Compound 07, N-(2,2-diphenylethyl)-2-phenylpropan-1 amine hydrochloride] | – |
| – | 36.05 | C[C@@H](NCCC(c1ccccc1)c1ccccc1)c1ccccc1.Cl [Compound 08, (R)-3,3-diphenyl-N-(1-phenylethyl)propan-1-amine hydrochloride] | 38.2 |
| – | 20.41 | C[C@H](NCCC(c1ccccc1)c1ccccc1)c1ccccc1.Cl [Compound 09, (S)-3,3-diphenyl-N-(1-phenylethyl)propan-1-amine hydrochloride] | – |
| 20.2 | – | c1ccc(CNCCC(c2ccccc2)c2ccccc2)cc1 [Compound 10, N-benzyl-3,3-diphenylpropan-1-amine] | – |
| 32.4 | – | CC(NCCCc1ccccc1)c1ccccc1 (stereo not shown) [Compound 11, 3-phenyl-N-(1-phenylethyl)propan-1-amine hydrochloride] | 42.9 |
| 37.7 | – | CC(NCC=C(c1ccccc1)c1ccccc1)c1ccccc1 (stereo not shown) [Compound 12, 3,3-diphenyl-N-(1-phenylethyl)prop-2-en-1-amine hydrochloride] | 55.1 |
| 32 | – | CC(OCCC(c1ccccc1)c1ccccc1)c1ccccc1 (stereo not shown) [Compound 13] | 28.9 |
| 23.3 | – | CC(NC(=O)CC(c1ccccc1)c1ccccc1)c1cccs1 (stereo not shown) [Compound 14, 3,3-diphenyl-N-(1-(thiophen-2-yl)ethyl)propanamide] | – |
| 25.1 | – | CC(NCCC(c1ccccc1)c1ccccc1)c1cccs1 (stereo not shown) [Compound 15, 3,3-diphenyl-N-(1-(thiophen-2-yl)ethyl)propan-1-amine hydrochloride] | – |
| 39.3 | – | C[C@@H](NCC=C(c1ccccc1)c1ccccc1)c1ccccc1 [Compound 16, (R)-3,3-diphenyl-N-(1-phenylethyl)prop-2-en-1-amine] | 58.4 |
| 8.27 | – | C[C@H](NCC=C(c1ccccc1)c1ccccc1)c1ccccc1 [Compound 17, (S)-3,3-diphenyl-N-(1-phenylethyl)prop-2-en-1-amine] | -51.9 |
| 17.6 | – | C[C@@H](NC/C=C/c1ccccc1)c1ccccc1 [Compound 18, (R,E)-3-phenyl-N-(1-phenylethyl)prop-2-en-1-amine] | -2.54 |
| 16.5 | – | C[C@H](NC/C=C/c1ccccc1)c1ccccc1 [Compound 19, (S,E)-3-phenyl-N-(1-phenylethyl)prop-2-en-1-amine] | 11.3 |
| 14.6 | – | CC(C)=CCC/C(C)=C/CO[C@H](C)c1ccccc1 [Compound 20, (R,E)-(1-((3,7-dimethylocta-2,6-dien-1-yl)oxy)ethyl)benzene] | -5.12 |

| inhibition at 4 µM [1] [%] | % Mislocalization of K-ras when treated with 4 μM compound [1] [%] | SMILES | inhibition at 4 µM [2] [%] |
| --- | --- | --- | --- |
| 8.29 | – | CC(C)=CCC/C(C)=C/CN[C@H](C)c1ccccc1 [Compound 21, (R,E)-3,7-dimethyl-N-(1-phenylethyl)octa-2,6-dien-1-amine] | 3.75 |
| 8.14 | – | C[C@@H](OCC=C(c1ccccc1)c1ccccc1)c1ccccc1 [Compound 22, (R)-(3-(1-phenylethoxy)prop-1-ene-1,1-diyl)dibenzene] | -14.4 |
| 10.3 | – | C[C@H](OCC=C(c1ccccc1)c1ccccc1)c1ccccc1 [Compound 23, (S)-(3-(1-phenylethoxy)prop-1-ene-1,1-diyl)dibenzene] | -0.95 |
| 18 | – | C[C@@H](OC/C=C/c1ccccc1)c1ccccc1 [Compound 24, (R,E)-(1-(cinnamyloxy)ethyl)benzene] | 7.19 |
| 33.9 | – | C[C@H](OC/C=C/c1ccccc1)c1ccccc1 [Compound 25, (S,E)-(1-(cinnamyloxy)ethyl)benzene] | 56.8 |
| 44.8 | – | CC(NCC=C(c1ccccc1)c1ccccc1)c1ccc(Br)cc1 (stereo not shown) [Compound 26, N-(1-(4-bromophenyl)ethyl)-3,3-diphenylprop-2-en-1-amine] | 43.5 |
| 45.2 | – | CC(NCC=C(c1ccccc1)c1ccccc1)c1ccc(F)cc1 (stereo not shown) [Compound 27, N-(1-(4-fluorophenyl)ethyl)-3,3-diphenylprop-2-en-1-amine] | 49.3 |
| 34.9 | – | CC(C)=CCC/C(C)=C/CC/C(C)=C/CN[C@H](C)c1ccccc1 [Compound 28, (2E,6E)-3,7,11-trimethyl-N—((R)-1-phenylethyl)dodeca-2,6,10-trien-1-amine] | 38 |
| 37 | – | CCC(NCC=C(c1ccccc1)c1ccccc1)c1ccccc1 (stereo not shown) [Compound 29, 3,3-diphenyl-N-(1-phenylpropyl)prop-2-en-1-amine hydrochloride] | 40.3 |
| 26.5 | – | CC(CNCC=C(c1ccccc1)c1ccccc1)c1ccccc1 (stereo not shown) [Compound 30, 3,3-diphenyl-N-(2-phenylpropyl)prop-2-en-1-amine] | 49.1 |
| 6.36 | – | C[C@@H](NC/C=C/c1ccc(-c2ccccc2)cc1)c1ccccc1 [Compound 31, (R,E)-3-([1,1′-biphenyl]-4-yl)-N-(1-phenylethyl)prop-2-en-1-amine] | 35.6 |
| 12.5 | – | C[C@@H](NC/C=C/c1cccc2ccccc12)c1ccccc1 [Compound 32, (R,E)-3-(naphthalen-1-yl)-N-(1-phenylethyl)prop-2-en-1-amine] | 31.7 |
| 1.53 | – | C[C@@H](NC/C=C/c1ccc2ccccc2c1)c1ccccc1 [Compound 33, (R,E)-3-(naphthalen-2-yl)-N-(1-phenylethyl)prop-2-en-1-amine] | 15.7 |
| 7.94 | – | C[C@@H](NC/C=C/c1ccccc1)c1cccc2ccccc12 [Compound 34, (R,E)-N-(1-(naphthalen-1-yl)ethyl)-3-phenylprop-2-en-1-amine] | 18.9 |
| 26.1 | – | C[C@@H](NC/C=C/c1ccccc1)c1ccc2ccccc2c1 [Compound 35, (R,E)-N-(1-(naphthalen-2-yl)ethyl)-3-phenylprop-2-en-1-amine] | -21.6 |
| 6.82 | – | C/C=C(/CN[C@H](C)c1ccccc1)c1ccccc1 [Compound 37, (R,E)-2-phenyl-N-(1-phenylethyl)but-2-en-1-amine] | 18.9 |
| 9.67 | – | C[C@@H](NCC1CCCCC1)c1ccccc1 [Compound 38, (R)—N-(cyclohexylmethyl)-1-phenylethanamine] | 32.7 |
| 6.72 | – | COC(=O)[C@@H](NC/C=C/c1ccccc1)c1ccccc1 [Compound 39, (S)-methyl 2-(cinnamylamino)-2-phenylacetate] | -10.2 |

Source: patent publication US20150344407A1, “FENDILINE DERIVATIVES AND METHODS OF USE THEREOF” (THE BOARD OF REGENTS OF THE UNIVERSITY OF TEXAS SYSTEM, priority 2012, published 2015)
